Measurements taken from EP2846814B1, “COMPOSITION FOR THE PREVENTION AND TREATMENT OF VIRAL INFECTIONS CAUSED BY RETROVIRUSES” (Pandalis, Georgios, priority 2012, dated 2013).

Test system: HIV-1 Lai (subtype B, X4)
Assay: In vitro testing of antiviral activity in the HeLa-P4 assay (β-Galactosidase reporter, luminescence)
Format: cell-based
Protocol: • Viruses: HIV-1 Lai (subtype B, X4); titer: 8 x 10^4/ml; 20 µl/batch • Cells: HeLa-P4; 2.5 x 10^4/batch
HeLa-P4 cells (from NIH AIDS Research and Reference Program) are a cell line, which was transfected with genes for the human CD4- and […] receptor and which are therefore infectable with HIV-1 (the CXCR4-receptor is expressed on the cells). For quantification of the HIV infection, the cells carry a reporter gene, i.e. β-Galactosidase gen, which is under control of the HIV-1 promoter. After infection, the Tat-protein of HIV-1 transactivates the reporter gene and the degree of infection can be quantified by measurement of the enzyme activity in the lysate of the cells. An inhibition of HIV-1 infection results in a reduction of the β-Galactosidase activity with respect to the infection with viruses without substance addition. The background is defined by measuring the enzyme activity in cells, to which no virus was added. Since in principle a lower infection may also be based on toxic effects of the substances to the cells, in addition to said assay a cytotoxicity assay is also carried out.
The test substances are prepared by adding 1 mg of each extract/concentrate in an Eppendorf vial and dissolving the sample in 1 ml of RPMI medium. The solution is filtered under sterile conditions and placed in a new Eppendorf vial. As a positive control, the T20-peptide (a known HIV-1 entry inhibitor; Enfuvirtide) is used. Dilution series of the test compounds alone, combinations thereof as well as of T20 in cell culture medium were prepared, wherein the samples have concentrations of 5, 10, 25, and 50 µg/ml for Marrubium vulgare, Cistus incanus and Ribes nigrum and combinations of extracts of Marrubium vulgare and Cistus incanus, and Marrubium vulgare and Ribes nigrum. For Marrubium vulgare, Borago officinalis and combinations of extracts of Marrubium vulgare and Borago officinalis concentrations of 5 and 50 µg/ml were tested. The given concentrations in the combinations relate to the concentration of each single extract, e.g. a concentration of 5 µg/ml means 5 µg/ml of Marrubium vulgare and 5 µg/ml of the extract of the other plant (Cistus incanus, Ribes nigrum, Borago officinalis).
The positive control T20 is used in concentrations of 100 and 200 nM. Each of the substance concentrations was tested in triplicates.
Day 1: Each of the substance dilutions of Marrubium vulgare (5, 10, 25, 50, […]), Ribes nigrum (5, 10, 25, and 50 µg/ml), Cistus incanus (5, 10, 25, and 50 µg/ml) and Borago officinalis (5 and 50 µg/m) is mixed with 20 µl of the HIV-1 Lai virus stock (titer 8x10^4/ml), vortexed, and pre-incubated at 37 °C for 30 minutes. The virus/substance mixture is added to 2.5 x 10^4 HeLa-P4 cells corresponding to an m.o.i. of 0.06, vortexed and incubated for 2 h at 37 °C. Afterwards the supernatant is removed, the cells are washed with medium and 100 µl of fresh medium is added. The cells are incubated for 2 days at 37 °C.
Accordingly, each of the substance dilutions of combinations of Marrubium vulgare and Ribes nigrum (5, 10, 25, and 50 µg/ml), Marrubium vulgare and Cistus incanus (5, 10, 25, and 50 µg/ml) and Marrubium vulgare and Borago officinalis (5 and 50 µg/ml) is mixed with 20 µl of the HIV-1 Lai virus stock (titer 8x10^4/ml), vortexed, and pre-incubated at 37 °C for 30 minutes. The virus/substance mixture is added to 2.5 x 10^4 HeLa-P4 cells, vortexed and incubated for 2 h at 37 °C. Afterwards the supernatant is removed, the cells are washed with medium and 100 µl of fresh medium is added. The cells are incubated for 2 days at 37 °C.
Day 3: The supernatant is removed, the cells are washed with 100 µl of medium and lysed in 50 µl of lysis buffer per each well (2.5 ml glycerol; 1.25 ml MES-Tris, 25 µl 1 M DTT, 250 µl Triton X100, H2O ad 25 ml) for 10 minutes on ice and removed at -80 °C. […]

In the case of Enfuvirtide [T20], the “LU (luminescence units) Average” value (100 nM) is reported as 16893 LU, the “LU (luminescence units) Trial 1” value (100 nM) is reported as 23855 LU and the “LU (luminescence units) Trial 2” value (100 nM) is reported as 13888 LU. For the same substance, the “LU (luminescence units) Trial 3” value (100 nM) was 12937 LU, the “LU (luminescence units) Average” value (200 nM) was 8802 LU and the “LU (luminescence units) Trial 1” value (200 nM) was 9407 LU. For the same substance, the “LU (luminescence units) Trial 2” value (200 nM) was 7531 LU and the “LU (luminescence units) Trial 3” value (200 nM) was 9468 LU.
